Measured values from patent US20250195487A1, “FORMULATIONS OF A CSF-1R INHIBITOR” (Deciphera Pharmaceuticals, LLC, priority 2023, published 2025).
Where a name gives a salt, the structure may show the parent alone.

Tests used:
[1] = Solubility determination in deionized water; type: physicochemical; conditions: ultrasonic treatment; for Solubility S: about 2 mg sample
[2] = Hygroscopic behavior test by dynamic vapor sorption (DVS); type: physicochemical; conditions: for hygroscopic property, in words: dependence on relative humidity; for hygroscopic weight gain: 25° C., DVS
Source text: The experimental method for characterizing the acid salt of the crystalline compound of the formula (I) by using dynamic vapor sorption (DVS) comprises the steps of putting a small amount of powder of the acid salt of the crystalline compound of the formula (I) in a precision sample tray in coordination with the instrument, and then sending to the instrument for testing after loading the samples. The model of all the instruments used in the dynamic vapor sorption in the present invention is DVS Intrinsic, the experimental parameters are set to that nitrogen is used as the carrier gas, the constant temperature is set to 25° C., the mass percent change rate per unit time (dm/dt) is equal to 0.01%/min as the determination criteria to achieve balance, the program humidity change cycle is set to that the initial relative humidity is 0%, the relative humidity at the end point is 90%, cycle is set to twice, and every 10% R.H. changes a step.
The inventors of the present invention measured the hygroscopic weight gain results (hygroscopic weight gain/pre-hygroscopic weight*100%) of various crystalline forms at each relative humidity by using the dynamic vapor sorption method, the hygroscopicity of different crystalline compounds was evaluated, and the results obtained were as follows: […]

Row | Dissolution Phenomenon [1] | Solubility S [1] | hygroscopic weight gain ([2]; relative humidity 0.0 %) [%] | hygroscopic weight gain ([2]; relative humidity 10.0 %) [%] | hygroscopic weight gain ([2]; relative humidity 20.0 %) [%] | hygroscopic weight gain ([2]; relative humidity 30.0 %) [%] | hygroscopic weight gain ([2]; relative humidity 40.0 %) [%] | hygroscopic weight gain ([2]; relative humidity 50.0 %) [%] | hygroscopic weight gain ([2]; relative humidity 60.0 %) [%] | hygroscopic weight gain ([2]; relative humidity 70.0 %) [%] | hygroscopic weight gain ([2]; relative humidity 80.0 %) [%] | hygroscopic weight gain ([2]; relative humidity 90.0 %) [%] | hygroscopic weight gain of the crystal ([2]; relative humidity less than 80%) | SMILES | hygroscopic property, in words [2]
1 | Settled solution | S > 20 mg/mL | 0.02 | 1.19 | 1.86 | 2.32 | 2.78 | 3.37 | 3.97 | 4.66 | 5.46 | 6.383 | – | Cc1nc(NC(=O)N2CCC(C)(C)C2=O)ccc1Oc1ccnc(-c2cnn(C)c2)c1 [Phosphate crystalline form I] | remains less hygroscopicity regardless of the ambient relative humidity
2 | Settled solution | S > 20 mg/mL | – | – | – | – | – | – | – | – | – | – | – | Cc1nc(NC(=O)N2CCC(C)(C)C2=O)ccc1Oc1ccnc(-c2cnn(C)c2)c1 [Sulfate crystalline form I] | –
3 | Settled solution | S > 20 mg/mL | 0.00 | 0.83 | 1.79 | 2.42 | 2.88 | 3.32 | 3.77 | 4.44 | 5.17 | 10.61 | – | Cc1nc(NC(=O)N2CCC(C)(C)C2=O)ccc1Oc1ccnc(-c2cnn(C)c2)c1 [Tartrate crystalline form I] | a good linear relationship is formed

The remaining lines, values behind:

Row | SMILES | Dissolution Phenomenon [1] | Solubility S [1] | hygroscopic weight gain ([2]; relative humidity 0.0 %) [%] | hygroscopic weight gain ([2]; relative humidity 10.0 %) [%] | hygroscopic weight gain ([2]; relative humidity 20.0 %) [%] | hygroscopic weight gain ([2]; relative humidity 30.0 %) [%] | hygroscopic weight gain ([2]; relative humidity 40.0 %) [%] | hygroscopic weight gain ([2]; relative humidity 50.0 %) [%] | hygroscopic weight gain ([2]; relative humidity 60.0 %) [%] | hygroscopic weight gain ([2]; relative humidity 70.0 %) [%] | hygroscopic weight gain ([2]; relative humidity 80.0 %) [%] | hygroscopic weight gain ([2]; relative humidity 90.0 %) [%] | hygroscopic weight gain of the crystal ([2]; relative humidity less than 80%) | hygroscopic property, in words [2]
4 | Cc1nc(NC(=O)N2CCC(C)(C)C2=O)ccc1Oc1ccnc(-c2cnn(C)c2)c1 [Citrate crystalline form I] | Settled solution | S > 20 mg/mL | – | – | – | – | – | – | – | – | – | – | – | –
5 | Cc1nc(NC(=O)N2CCC(C)(C)C2=O)ccc1Oc1ccnc(-c2cnn(C)c2)c1 [Free compound] | Non-settling | S < 1.5 mg/mL | – | – | – | – | – | – | – | – | – | – | – | –
6 | Cc1nc(NC(=O)N2CCC(C)(C)C2=O)ccc1Oc1ccnc(-c2cnn(C)c2)c1 [Fumarate crystalline form I] | Settled solution | S > 20 mg/mL | – | – | – | – | – | – | – | – | – | – | – | –
7 | Cc1nc(NC(=O)N2CCC(C)(C)C2=O)ccc1Oc1ccnc(-c2cnn(C)c2)c1 [Hydrochloride crystalline form I] | Settled solution | S > 20 mg/mL | 0.00 | 0.13 | 0.24 | 0.34 | 0.42 | 0.52 | 0.63 | 0.81 | 1.37 | 19.40 | less than 1% | when the relative humidity was increased to 90%, the hygroscopicity of the crystal was increased significantly
8 | Cc1nc(NC(=O)N2CCC(C)(C)C2=O)ccc1Oc1ccnc(-c2cnn(C)c2)c1 [Malate crystalline form I] | Settled solution | S > 20 mg/mL | – | – | – | – | – | – | – | – | – | – | – | –
9 | Cc1nc(NC(=O)N2CCC(C)(C)C2=O)ccc1Oc1ccnc(-c2cnn(C)c2)c1 [Mesylate crystalline form II] | Settled solution | S > 20 mg/mL | 0.00 | 0.11 | 0.18 | 0.20 | 0.24 | 0.31 | 0.88 | 8.93 | 12.44 | 23.15 | – | significantly increased when the relative humidity is increased to 70%
